Laboratory results as given in ChEMBL document CHEMBL1144929, “Determination of conformer-specific partition coefficients in octanol/water systems” (J Med Chem, 2003).

How the values were obtained:
Assay type in all cases: physicochemical
[1] = Partition coefficient of h-rotamer in octanol water system
[2] = Partition coefficient (logP); conditions: octanol/water
[3] = Partition coefficient of t-rotamer in octanol water system
[4] = Partition coefficient of g-rotamer in octanol water system

SMILES: CC(C)(C)NCC(O)c1cc(Cl)c(N)c(Cl)c1 (centres undefined) [CLENBUTEROL]
- logP [1]: 2.57
- logP [2]: 2.71
- logP [3]: 2.87
- logP [4]: 2.14
